In patent US20240385198A1, “STING MODULATOR COMPOSITIONS AND METHODS OF USE AND DETECTION THEREOF” (University of South Florida, priority 2023, published 2024):
Like-named read-outs stand apart in the source and are kept apart here.

Legend:
His-labeled STING = His-labeled STING (Homo sapiens, UniProt Q86WV6, H232R); test: Microscale thermophoresis (MST) analysis of STING modulators with 50 nM 2,3-cGAMP (Example 2); type: binding; conditions: compounds incubated with 50 nM 2,3-cGAMP
Method: Nanotemper Monolith NT.115 labeled thermophoresis machine (NanoTemper Technologies GmbH, München, Germany) was used with standard treated capillary tubes using samples comprised of labeled protein and titrations of small molecule in 1×PBS. […] Detection of the protein was performed using the blue detection channel with LED excitation power set to 90% and MST set to high allowing 3 s prior to MST on to check for initial fluorescence differences, 25 s for thermophoresis, and 3 s for regeneration after MST off.
[…] Analysis was performed using M.O. Affinity Analysis Software with difference between initial fluorescence measured in the first 5 s as compared with thermophoresis at 15 s at 15 different analyte concentrations ranging from 100 zM to […] and exported into Graphpad Prism v.8 using a Log inhibitor v. response 4 parameter fit.
Microscale Thermophoresis (MST) was performed on compounds incubating with 50 nM 2,3-cGAMP. Confidence is categorized as follows: 1=low confidence (<2 MST shift unit-non-statistical); 2=mid confidence (2-3 MST shift units-intermediate); 3=high confidence ([…]-statistical). Dissociation constants are categorized as follows: A<1 pM; 1 pM≤B<100 pM; 100 pM≤C<10 μM; 10 μM≤D<100 μM.

[1] = test system: STING R232 variant (human recombinant); test: MST competition assay of STING oligomerization with 2′,3′-cGAMP (Example 1); type: binding; conditions: 100 nM STING, 50 nM 2′,3′-cGAMP; for EC50 interactions (high, mid, low affinity) from MST dose-response: 1:10 series dilution 100 mM to 100 zM, FIGS. 3A, 3B, 4; for Interaction with STING as a function of incubation time (dose-response curves): 15 min, 30 min, 45 min incubation, FIGS. 2A-2C
Text: Temperature Related Intensity Change (TRIC) is a biophysical technique that measures the strength of the interaction between two molecules by detecting a variation in the fluorescence signal of a fluorescently labeled or intrinsically fluorescent target as a result of an IR-laser induced temperature change. The extent of the temperature dependence is strongly related to the chemical environment of the fluorophore, which can be changed by the binding of a ligand to the target. Binding events below the picomolar level are difficult to detect because below this level, the ratio between target protein and analyte is too large for the detector to accurately measure movement. Herein describes a competition assay involving STING along with 2′,3′-cGAMP to detect analyte interaction with STING at sub-picomolar levels by measuring changes to oligomerization of STING.
The NanoTemper Pico instrument produces data in three separate phases: fluorescent count; normalized MST time-trace; and the change in normalized fluorescence (ΔFnorm) result. The fluorescent count is done to ensure that there is no difference between overall fluorescence between fractions, that there is enough fluorescent signal present for the detector to accurately give a reading, but not too much as to negatively affect migration during thermophoresis. It also gives indication if there is aggregation or adsorption within samples. The normalized MST time-trace gives an indication of the movement of molecules by thermophoresis within the detector sight picture over a period of time (T−Jump). The final graph is a ΔFnorm readout which is mathematically determined using the formula:
ΔFnorm=Fhot/Fcold • whereas Fhot equals an area designated by the analyst, located within the T−Jump area and Fcold equals the area within the initial fluorescence area just before the infrared (IR) laser heats the capillary tube.
STING R232 variant (human recombinant) protein was solubilized at 200 nM in HBS-P (0.01M HEPES pH 7.4, 0.15 NaCl, 0.005% v/v surfactant P20) along with 100 nM 2′,3′-cGAMP. 100 nM of NTAAtto 488 dye (blue; nitrilotriacetic acid complexed to Ni^2+) was added and incubated for 1 hour at room temperature covered from light. The resulting mixture was centrifuged at 12,000×RPM for 10 minutes prior to use. A 1:10 series dilution from 200 mM to 200 zM was created using HBS-P with 1% DMSO. The dyed STING/2′,3′-cGAMP mixture was added to each sample in a 1:1 ratio, resulting in a static 100 nM STING, 50 nM 2′,3′-cGAMP, and a concentration range from 100 mM to 100zM. Samples were incubated for 15-minutes prior to load into Monolith NT.115 capillaries and ran on dianthus NT.23 NanoTemper Pico instrument (NanoTemper Technologies GmbH, München, Germany). Samples were run again at 30- and 45-minutes.

[2] = read-out: Dissociation Constant
[3] = first of two binding events, read-out: Dissociation Constant Kd1
[4] = second of two binding events, read-out: Dissociation Constant Kd2

His-labeled STING, sequence (Q86WV6 138-379 H232R): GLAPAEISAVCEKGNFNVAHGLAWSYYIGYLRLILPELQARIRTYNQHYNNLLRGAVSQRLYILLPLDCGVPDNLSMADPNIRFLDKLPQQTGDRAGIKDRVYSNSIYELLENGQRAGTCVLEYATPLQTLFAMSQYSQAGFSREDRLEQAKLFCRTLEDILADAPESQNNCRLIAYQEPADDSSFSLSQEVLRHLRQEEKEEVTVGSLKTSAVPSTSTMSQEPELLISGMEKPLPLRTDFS

Row | Kd (His-labeled STING; [2]) [nM] | Structure (SMILES) | Confidence (MST shift units) (His-labeled STING) | also measured
1 | 0.1 to 10000 | CNC(=O)c1cccnc1Nc1cccc(Cl)c1C [Compound 14] | 2 (2=mid confidence (2-3 MST shift units-intermediate)) | 
2 | 0.1 to 10000 | C=CCNC(=O)c1cccnc1Nc1cccc(Cl)c1C [Compound 17] | 1 (1=low confidence (<2 MST shift unit-non-statistical)) | 
3 | 0.1 to 10000 | CCCCC(=O)c1cccnc1Nc1cccc(Cl)c1C [Compound 21] | 2 (2=mid confidence (2-3 MST shift units-intermediate)) | 
4 | 10000 to 100000 | Cc1c(Br)cccc1Nc1ncccc1C(=O)O [Compound 23] | 3 (3=high confidence (>2 MST shift units-statistical)) | 
5 | 10000 to 100000 | C#CCOC(=O)c1cccnc1Nc1cccc(Cl)c1C [Compound 13] | 2 (2=mid confidence (2-3 MST shift units-intermediate)) | 
6 | 0.1 to 10000 | CCCNC(=O)c1cccnc1Nc1cccc(Cl)c1C [Compound 16] | 2 (2=mid confidence (2-3 MST shift units-intermediate)) | 
7 | < 0.001 | Cc1c(Cl)cccc1Nc1ncccc1C(=O)OCC(O)CO (stereo not drawn) [Compound 19] | 1 (1=low confidence (<2 MST shift unit-non-statistical)) | 
8 | 0.1 to 10000 | CCNC(=O)c1cccnc1Nc1cccc(Cl)c1C [Compound 15] | 1 (1=low confidence (<2 MST shift unit-non-statistical)) | 
9 | < 0.001 | Cc1c(Cl)cccc1Nc1ncccc1CO [Compound 4] | 2 (2=mid confidence (2-3 MST shift units-intermediate)) | 
10 | 0.001 to 0.1 | COC(=O)c1cccnc1Nc1cccc(Br)c1C [Compound 24] | 1 (1=low confidence (<2 MST shift unit-non-statistical)) | 

Further lines, the molecule ahead of its results:

Row | Structure (SMILES) | Kd (His-labeled STING; [2]) [nM] | Confidence (MST shift units) (His-labeled STING) | also measured
11 | COC(=O)c1cccnc1Nc1cccc(C(F)(F)F)c1C [Compound 30] | 0.001 to 0.1 |  | 
12 | C#CCOC(=O)c1cccnc1Nc1cccc(Cl)c1C [Formula (II)] |  |  | EC50 interactions (high, mid, low affinity) from MST dose-response [1]: only a low affinity EC50
13 | Cc1cccc(Nc2ncccc2C(=O)OCC(O)CO)c1C (stereo not drawn) [Compound 48] |  | 1 (1=low confidence (<2 MST shift unit-non-statistical)) | Dissociation Constant (His-labeled STING): No Binding
14 | Cc1c(Cl)cccc1Nc1ccccc1C(=O)OCC(O)CO (stereo not drawn) [Compound 38] |  | 1 (1=low confidence (<2 MST shift unit-non-statistical)) | Kd (His-labeled STING; [3]): 0.1 to 10000 nM; Kd (His-labeled STING; [4]): < 0.001 nM
15 | Cc1c(Cl)cccc1Nc1ncccc1COCC(O)CO (stereo not drawn) [Compound 1] | 0.001 to 0.1 | 1 (1=low confidence (<2 MST shift unit-non-statistical)) | 
16 | Cc1c(Cl)cccc1Nc1ncccc1C(=O)OCCCCCOC(=O)c1cccnc1Nc1cccc(Cl)c1C [Compound 50] | 0.1 to 10000 | 3 (3=high confidence (>2 MST shift units-statistical)) | 
17 | CCCOC(=O)c1cccnc1Nc1cccc(Cl)c1C [Compound 11] |  | 1 (1=low confidence (<2 MST shift unit-non-statistical)) | Kd (His-labeled STING; [3]): 0.1 to 10000 nM; Kd (His-labeled STING; [4]): < 0.001 nM
18 | NC(=O)NC1NC(=O)NC1=O (stereo not drawn) [Compound 52] |  | 3 (3=high confidence (>2 MST shift units-statistical)) | Kd (His-labeled STING; [3]): 0.1 to 10000 nM; Kd (His-labeled STING; [4]): < 0.001 nM
19 | COC(=O)c1cccnc1Nc1cccc(F)c1C [Compound 44] | 0.001 to 0.1 | 1 (1=low confidence (<2 MST shift unit-non-statistical)) | 
20 | Cc1cccc(Nc2ccccc2C(=O)O)c1C [Compound 45] |  | 1 (1=low confidence (<2 MST shift unit-non-statistical)) | Dissociation Constant (His-labeled STING): No Binding
21 | Cc1c(Cl)cccc1Nc1ncccc1C(=O)OCCCOC(=O)c1cccnc1Nc1cccc(Cl)c1C [Compound 41] | 0.1 to 10000 | 1 (1=low confidence (<2 MST shift unit-non-statistical)) | 
22 | CCC(COC(=O)c1cccnc1Nc1cccc(Br)c1C)OC (stereo not drawn) [Compound 42] |  | 2 (2=mid confidence (2-3 MST shift units-intermediate)) | 
23 | Cc1c(Cl)cccc1Nc1ncccc1C(=O)OCCCCOC(=O)c1cccnc1Nc1cccc(Cl)c1C [Compound 49] | 0.001 to 0.1 | 1 (1=low confidence (<2 MST shift unit-non-statistical)) | 
24 | Cc1c(Br)cccc1Nc1ncccc1C(=O)OCC(O)CO (stereo not drawn) [Compound 26] | < 0.001 |  | 
25 | Cc1c(Cl)cccc1Nc1ccccc1C(=O)O [Compound 36] |  | 1 (1=low confidence (<2 MST shift unit-non-statistical)) | Dissociation Constant (His-labeled STING): No Binding
26 | Cc1c(Nc2ncccc2C(=O)OCC(O)CO)cccc1C(F)(F)F (stereo not drawn) [Compound 29] | < 0.001 |  | 
27 | COC(=O)c1cccnc1Nc1cccc(Cl)c1C [Formula (I)] |  |  | EC50 interactions (high, mid, low affinity) from MST dose-response [1]: several nonlinear regression curves
28 | CCC(COC(=O)c1cccnc1Nc1cccc(C)c1C)OC (stereo not drawn) [Compound 43] |  | 1 (1=low confidence (<2 MST shift unit-non-statistical)) | 
29 | Cc1cccc(Nc2ncccc2C(=O)O)c1C [Compound 47] |  | 1 (1=low confidence (<2 MST shift unit-non-statistical)) | Dissociation Constant (His-labeled STING): No Binding
30 | CCC(COC(=O)c1ccccc1Nc1cccc(C)c1C)OC (stereo not drawn) [Compound 46] |  | 1 (1=low confidence (<2 MST shift unit-non-statistical)) | 
31 | CNC(=O)c1cccnc1Nc1cccc(Cl)c1C [Formula (III)] |  |  | Interaction with STING as a function of incubation time (dose-response curves) [1]: relatively slow interaction
32 | Cc1c(Cl)cccc1Nc1ncccc1CN [Compound 40] |  |  | Kd (His-labeled STING; [3]): 0.1 to 10000 nM; Kd (His-labeled STING; [4]): < 0.001 nM
33 | CNCc1cccnc1Nc1cccc(Cl)c1C [Formula (IV)] |  |  | Interaction with STING as a function of incubation time (dose-response curves) [1]: relatively rapid interaction with STING that was not maintained
34 | CCOC(=O)c1cccnc1Nc1cccc(Cl)c1C [Compound 10] |  | 1 (1=low confidence (<2 MST shift unit-non-statistical)) | Dissociation Constant (His-labeled STING): Low R2
35 | Cc1c(Nc2ncccc2C(=O)O)cccc1C(F)(F)F [Compound 27] | 0.1 to 10000 | 3 (3=high confidence (>2 MST shift units-statistical)) | 
36 | COC(=O)c1cccnc1Nc1cccc(Cl)c1C [Compound 9] |  | 3 (3=high confidence (>2 MST shift units-statistical)) | Kd (His-labeled STING; [3]): 0.1 to 10000 nM; Kd (His-labeled STING; [4]): < 0.001 nM
